Source: patent publication US20220298143A1, “Pyrazole Derivatives for FGFR Inhibitor and Preparation Method Thereof” (Etern Biopharma (Shanghai) Co., Ltd., priority 2019, published 2022)

Legend:
[1] = molecular target: T1, FGFR1 (Homo sapiens, UniProt P11362); experiment: Enzymatic activity test of FGFR inhibitor, Caliper model; type: biochemical; settings: Caliper, kinase pre-incubation 10 minutes; read-out: FGFR1
T1 construct: purchased Cama (sic; Carna) 08-133
Procedure: (§1) Enzymatic Activity Test of FGFR Inhibitor-Caliper Model
(§2) The specific operation steps were as follows:
(§3) The compound was first serially diluted in 5% DMSO solution, and 5 μL of the compound solution was added to a 384-well plate. The maximum final concentration of the compound is 1 μM, being diluted three times with 10 concentrations.
(§4) 10 μL of kinase solution was added to the 384-well plate and incubated at room temperature for 10 minutes;
(§5) 10 μL of P22 peptide and ATP solution were added to the 384-well plate, and 25 μL of reaction stop buffer was added after a specific time at 28° C.;
(§6) The data was collected in Caliper read and the inhibition rate was calculated according to inhibition rate=(max−conversion)/(max−min)*100, where max is DMSO control, conversion is the reading of the compound treated group, and min is the maximum inhibition control. IC50 value of the compound was calculated with XLfit excel add-in version 5.4.0.8 software.

[2] = molecular target: FGFR2 (Homo sapiens, UniProt P21802); experiment: as above; type: biochemical; settings: kinase pre-incubation 10 minutes
FGFR2, sequence (P21802 22-821): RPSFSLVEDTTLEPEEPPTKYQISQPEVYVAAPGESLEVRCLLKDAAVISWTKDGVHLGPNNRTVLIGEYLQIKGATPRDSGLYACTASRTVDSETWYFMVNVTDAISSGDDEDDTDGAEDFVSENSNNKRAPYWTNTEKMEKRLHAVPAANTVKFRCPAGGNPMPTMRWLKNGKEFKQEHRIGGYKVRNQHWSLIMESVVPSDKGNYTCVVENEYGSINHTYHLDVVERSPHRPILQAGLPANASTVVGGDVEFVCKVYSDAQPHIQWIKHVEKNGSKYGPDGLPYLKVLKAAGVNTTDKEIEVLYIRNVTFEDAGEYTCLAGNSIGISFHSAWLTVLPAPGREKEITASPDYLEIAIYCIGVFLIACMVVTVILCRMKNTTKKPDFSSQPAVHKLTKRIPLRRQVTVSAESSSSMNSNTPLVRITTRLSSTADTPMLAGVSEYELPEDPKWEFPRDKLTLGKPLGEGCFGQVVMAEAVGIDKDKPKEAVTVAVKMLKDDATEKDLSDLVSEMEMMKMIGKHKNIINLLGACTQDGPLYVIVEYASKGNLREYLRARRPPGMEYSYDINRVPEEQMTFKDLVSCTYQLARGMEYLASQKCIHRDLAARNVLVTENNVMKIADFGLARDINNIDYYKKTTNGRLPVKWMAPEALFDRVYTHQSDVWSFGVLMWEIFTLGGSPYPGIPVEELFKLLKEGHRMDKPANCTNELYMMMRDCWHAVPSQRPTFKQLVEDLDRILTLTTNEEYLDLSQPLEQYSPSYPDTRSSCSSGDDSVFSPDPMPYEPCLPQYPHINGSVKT

[3] = molecular target: FGFR3 (Homo sapiens, UniProt P22607); experiment: as above; type: biochemical; settings: kinase pre-incubation 10 minutes
FGFR3, sequence (P22607 23-806): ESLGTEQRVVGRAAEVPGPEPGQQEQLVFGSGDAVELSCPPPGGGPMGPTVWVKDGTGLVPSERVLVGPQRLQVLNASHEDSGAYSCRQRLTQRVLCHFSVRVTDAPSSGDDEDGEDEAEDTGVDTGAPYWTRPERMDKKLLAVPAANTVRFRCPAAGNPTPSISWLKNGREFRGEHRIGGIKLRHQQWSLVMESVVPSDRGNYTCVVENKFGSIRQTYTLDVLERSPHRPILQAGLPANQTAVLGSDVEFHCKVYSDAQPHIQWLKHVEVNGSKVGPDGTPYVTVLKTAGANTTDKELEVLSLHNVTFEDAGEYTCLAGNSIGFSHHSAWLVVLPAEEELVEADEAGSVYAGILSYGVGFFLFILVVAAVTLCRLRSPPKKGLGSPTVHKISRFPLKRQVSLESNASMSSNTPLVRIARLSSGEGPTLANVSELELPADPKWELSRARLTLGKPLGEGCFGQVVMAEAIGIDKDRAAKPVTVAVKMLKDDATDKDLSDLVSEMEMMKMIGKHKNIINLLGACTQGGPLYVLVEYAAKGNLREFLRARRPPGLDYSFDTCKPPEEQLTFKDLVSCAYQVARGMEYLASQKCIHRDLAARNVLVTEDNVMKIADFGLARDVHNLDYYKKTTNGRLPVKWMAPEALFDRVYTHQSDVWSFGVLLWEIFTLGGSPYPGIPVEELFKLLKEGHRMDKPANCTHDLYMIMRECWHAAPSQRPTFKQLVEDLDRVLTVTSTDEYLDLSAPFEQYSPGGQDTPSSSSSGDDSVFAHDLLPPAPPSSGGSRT

[4] = molecular target: T2, FGFR4 (Homo sapiens, UniProt P22455); experiment: as above; type: biochemical; settings: Caliper, kinase pre-incubation 10 minutes; read-out: FGFR4
T2 construct: purchased Invitrogen PR4380A
T2 sequence (P22455 22-802): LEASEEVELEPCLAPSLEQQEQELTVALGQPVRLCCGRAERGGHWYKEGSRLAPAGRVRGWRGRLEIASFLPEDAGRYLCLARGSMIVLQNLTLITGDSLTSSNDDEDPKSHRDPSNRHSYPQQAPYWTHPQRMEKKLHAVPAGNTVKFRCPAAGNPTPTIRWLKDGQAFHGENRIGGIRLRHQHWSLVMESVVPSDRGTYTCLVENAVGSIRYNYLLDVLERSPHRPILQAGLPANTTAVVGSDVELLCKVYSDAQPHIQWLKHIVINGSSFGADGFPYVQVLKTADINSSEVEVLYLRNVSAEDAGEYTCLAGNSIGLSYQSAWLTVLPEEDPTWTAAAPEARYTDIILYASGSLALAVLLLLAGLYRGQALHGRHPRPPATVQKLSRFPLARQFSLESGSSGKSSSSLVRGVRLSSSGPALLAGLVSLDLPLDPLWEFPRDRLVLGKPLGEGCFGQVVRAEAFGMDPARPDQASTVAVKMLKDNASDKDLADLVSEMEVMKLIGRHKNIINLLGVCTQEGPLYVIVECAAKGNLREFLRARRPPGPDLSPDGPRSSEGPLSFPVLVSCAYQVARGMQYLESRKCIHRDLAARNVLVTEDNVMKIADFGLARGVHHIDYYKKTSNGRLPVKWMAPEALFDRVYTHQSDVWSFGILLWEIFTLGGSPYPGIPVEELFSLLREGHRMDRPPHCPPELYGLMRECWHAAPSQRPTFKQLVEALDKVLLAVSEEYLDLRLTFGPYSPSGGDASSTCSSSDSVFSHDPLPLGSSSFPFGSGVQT
Procedure: as §1, §2, §3, §4, §5, §6

[5] = tested on: Hep3B cells; experiment: Human liver cancer cell Hep3B survival test (CellTiter-Glo); type: cell-based; settings: 72 hours compound treatment
Procedure: Human Liver Cancer Cell Hep3B Survival Test
The human liver cancer Hep3B cell line was from ATCC. The cells were cultured in DMEM liquid medium, and fetal bovine serum (10% FBS) and penicillin-streptomycin (100,000 U/L) were added. The cells were kept at 37° C., 95% humidity and 5% carbon dioxide in the culture medium. During the experiment, Hep3B cells were seeded in a 96-well plate at a density of 3000 cells per well. The volume of the cell suspension was 100 μL per well, and the cells were cultured overnight to attach the cells. The next day, each compound was diluted with DMSO in a three-fold gradient, and 1 μL of the solution of the compound in DMSO was added to the cell culture medium. At the same time, 1 μL of DMSO was used as a control. Three parallel sub-wells were set for each concentration of each compound. Then the cells were placed in a 37° C. incubator. After 72 hours of continuous compound treatment, 50 μL CellTiter-Glo (Promega, Madison Wis.) was added to the cell culture medium. The relative luminescence unit (RLU) of each well was determined and the cell survival rate and compound activity (IC50) were calculated.

[6] = Compound pharmacokinetic experiment, single intragastric administration; type: in vivo; settings: mouse, plasma, male mice, oral dosage 15 mg/Kg
Procedure: Compound Pharmacokinetic Experiment
The pharmacokinetics of the compounds of the present disclosure was determined. This application used the following methods to determine the pharmacokinetic parameters of the compounds.
For the healthy male adult mice used in the study, each group of animals was given a single intragastric administration of 5-100 mg/Kg. Fasting was from 10 hours before administration to 4 hours after administration. Blood was collected at different time points after administration, and the plasma content of the compound was determined (LC-MS/MS). The plasma concentration-time relationship was analyzed with professional software (winnonlin) to calculate the pharmacokinetic parameters of the compound.

[7] = tested on: Human liver cancer Hep3B cells; experiment: Hep3B transplanted tumor model; type: in vivo, Balb/c nude mice; settings: 21 days
Procedure: Hep3B Transplanted Tumor Model
Cell culture: Human liver cancer Hep3B cells were cultured in a monolayer in vitro. The culture conditions were 1640 medium with 10% fetal bovine serum, 100 U/mL penicillin and 100 μg/mL streptomycin, incubated at 37° C. in 5% CO2 incubator. Routine digestive passage was performed by pancreatin-EDTA twice a week. When the cell saturation was 80%-90% and the number reached the requirement, the cells were collected, counted, and inoculated.
Animals: Balb/c nude mice, female, 6-8 weeks old, weighing 18-22 grams, provided by Shanghai Slack Laboratory Animal Co., Ltd. or other qualified suppliers.
Tumor inoculation: 0.2 mL (10×106+Matrixgel) Hep3B cells were subcutaneously inoculated on the right back of each mouse, and group administration was started when the average tumor volume reached about 140-200 mm^3.
Administration: compound prescription (0.5% MC+0.5% Tween 80) was made with administration dose of 0.3 mg/Kg, 1 mg/Kg, 2 mg/Kg, 3 mg/Kg, intragastric administration twice a day continuously for 21 days.
Experimental indicators: to investigate whether tumor growth was inhibited, delayed or cured, the tumor diameter was measured with a vernier caliper three times a week. The calculation formula for tumor volume is: V=0.5a×b2, where a and b represent the long diameter and short diameter of the tumor, respectively. The anti-tumor efficacy of the compound was evaluated by TGI (%). TGI (%) reflected the tumor growth inhibition rate.

[8] = molecular target: T3, FGFR1 (456-763) kinase domain protein (Homo sapiens, UniProt P11362); experiment: Confirmation of covalent bond formation between inhibitor and FGFR by mass spectrometry; type: binding
T3 construct: The purified FGFR1 (456-763) kinase domain protein
T3 sequence (P11362 456-763): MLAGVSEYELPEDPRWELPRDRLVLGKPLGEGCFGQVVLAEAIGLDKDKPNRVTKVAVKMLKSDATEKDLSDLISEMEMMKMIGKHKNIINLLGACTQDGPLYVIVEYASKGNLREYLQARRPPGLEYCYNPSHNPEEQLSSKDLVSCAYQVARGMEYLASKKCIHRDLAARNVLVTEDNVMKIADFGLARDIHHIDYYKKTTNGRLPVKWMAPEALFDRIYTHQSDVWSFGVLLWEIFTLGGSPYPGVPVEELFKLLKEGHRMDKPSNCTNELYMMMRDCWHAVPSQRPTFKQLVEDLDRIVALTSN
Procedure: Confirmation of the Formation of Covalent Bonds Between FGFR Irreversible Inhibitors and FGFR by Mass Spectrometry
For example, compound 1 was incubated with FGFR1, the molecular weight of the protein-compound complex was detected by mass spectrometry.
Operation steps: The purified FGFR1 (456-763) kinase domain protein was diluted with a protein buffer (20 mM Tris-HCL pH8.0, 150 mM Nacl) to a final concentration of about 20 μM (800 ng/μl). A 100 ul incubation system was used, wherein compound 1 with a final concentration of 100 μM was added to the experimental group with a molar ratio of the protein to compound of 1:5 and DMSO was added to the control group. The amount of DMSO was controlled in the two groups to be 1% by volume of the system. The experimental group and the control group were incubated on ice at the same time for 2 hours, and then diluted with 4 times volume of acetone at −20 overnight. After centrifugation at 16000×g for 10 minutes, the deposit was resuspended in 0.1% formic acid and loaded for mass spectrometry data collection.

[9] = 100 μM compound, about 20 μM protein, 2 hours on ice

T1 sequence (P11362 22-822): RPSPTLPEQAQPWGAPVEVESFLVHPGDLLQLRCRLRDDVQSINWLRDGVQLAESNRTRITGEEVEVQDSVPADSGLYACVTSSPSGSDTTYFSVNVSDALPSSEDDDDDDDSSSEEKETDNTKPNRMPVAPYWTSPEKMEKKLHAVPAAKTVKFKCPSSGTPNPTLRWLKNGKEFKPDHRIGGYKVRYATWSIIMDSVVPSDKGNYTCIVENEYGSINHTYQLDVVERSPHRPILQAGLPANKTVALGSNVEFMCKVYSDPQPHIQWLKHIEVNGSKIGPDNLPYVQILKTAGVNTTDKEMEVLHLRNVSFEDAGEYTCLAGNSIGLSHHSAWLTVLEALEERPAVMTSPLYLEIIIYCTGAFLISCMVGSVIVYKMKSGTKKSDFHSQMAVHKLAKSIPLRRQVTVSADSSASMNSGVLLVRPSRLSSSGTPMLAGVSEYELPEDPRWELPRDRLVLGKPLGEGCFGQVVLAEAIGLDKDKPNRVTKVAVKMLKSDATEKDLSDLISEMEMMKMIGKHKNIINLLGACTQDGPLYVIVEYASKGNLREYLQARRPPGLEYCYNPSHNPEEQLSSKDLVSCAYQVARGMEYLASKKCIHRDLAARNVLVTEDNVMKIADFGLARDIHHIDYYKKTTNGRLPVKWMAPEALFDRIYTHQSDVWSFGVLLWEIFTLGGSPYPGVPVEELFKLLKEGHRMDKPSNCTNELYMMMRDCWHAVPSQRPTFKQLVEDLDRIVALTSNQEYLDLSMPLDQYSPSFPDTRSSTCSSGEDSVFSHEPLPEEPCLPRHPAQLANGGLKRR

C=CC(=O)Nc1cc(N2CCN(CCC(F)(F)F)CC2)ccc1C(=O)Nc1cc(CCc2cc(OC)cc(OC)c2)n[nH]1 [Compound 1, 2-acrylamide-N-(3-(3,5-dimethoxyphenethyl)-1H-pyrazol-5-yl)-4-(4-(3,3,3-trifluoropropyl)piperazin-1-yl) benzamide]
IC50 [1]: 1.9 nM | IC50 [2]: 1.8 nM | IC50 [3]: 3.3 nM | IC50 [4]: 1.2 nM | IC50 [5]: 1.4 nM | Cmax ([6]; read-out: Peak plasma concentration Cmax): 1220 nM | AUC ([6]; read-out: Plasma exposure AUC): 2.27 µM·h | TGI % ([7]; 0.3 mpk oral twice a day): 17% | TGI % ([7]; 1 mpk oral twice a day): 50% | TGI % ([7]; 2 mpk oral twice a day): 100% | TGI % ([7]; 3 mpk oral twice a day): 108% | average molecular weight of protein-compound complex [8, 9]: 36345.5 Da | Δmolecular weight (complex versus DMSO + FGFR1) [8, 9]: 598 | formation of covalent bond with FGFR1 protein ([8]; mass spectrometry): formed an irreversible covalent bond
